# According to ChEMBL document CHEMBL1155057, “Studies toward the discovery of the next generation of antidepressants. Part 6: Dual 5-HT1A receptor and serotonin transporter affinity within a class of arylpiperazinyl-cyclohexyl indole derivatives” (Bioorg Med Chem, 2008):
# How the values were obtained:
# [1] = molecular target: Sodium-dependent serotonin transporter (Rattus norvegicus) (UniProt P31652); test: Displacement of [3H]paroxetine from rat cortical 5HTT reuptake site at 100 nM
# [2] = molecular target: T1, 5-hydroxytryptamine receptor 1A (Homo sapiens, UniProt P08908); test: biochemical
# T1 sequence (P08908 whole entry): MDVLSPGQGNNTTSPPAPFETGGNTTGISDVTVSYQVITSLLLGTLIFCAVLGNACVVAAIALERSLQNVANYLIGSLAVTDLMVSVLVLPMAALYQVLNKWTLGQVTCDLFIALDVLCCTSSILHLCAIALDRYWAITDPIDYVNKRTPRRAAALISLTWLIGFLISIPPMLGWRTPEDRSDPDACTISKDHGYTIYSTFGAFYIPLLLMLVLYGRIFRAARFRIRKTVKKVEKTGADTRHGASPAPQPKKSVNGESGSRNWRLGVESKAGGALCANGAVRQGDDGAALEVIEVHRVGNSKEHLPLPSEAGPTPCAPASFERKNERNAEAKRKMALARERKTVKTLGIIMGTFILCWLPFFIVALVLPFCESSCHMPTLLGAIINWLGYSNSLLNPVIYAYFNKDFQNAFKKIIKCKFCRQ
# [3] = molecular target: T2, 5-hydroxytryptamine receptor 1A (Homo sapiens) (UniProt P08908); test: Intrinsic activity at human 5HT1A receptor expressed in CHO cells by GTPgammaS binding assay relative to serotonin; type: functional, cell-based
# T2 sequence (whole entry): T1 sequence (P08908 whole entry)
# [4] = molecular target: Sodium-dependent serotonin transporter (Rattus norvegicus, UniProt P31652)
# Sequence of Sodium-dependent serotonin transporter (P31652 whole entry): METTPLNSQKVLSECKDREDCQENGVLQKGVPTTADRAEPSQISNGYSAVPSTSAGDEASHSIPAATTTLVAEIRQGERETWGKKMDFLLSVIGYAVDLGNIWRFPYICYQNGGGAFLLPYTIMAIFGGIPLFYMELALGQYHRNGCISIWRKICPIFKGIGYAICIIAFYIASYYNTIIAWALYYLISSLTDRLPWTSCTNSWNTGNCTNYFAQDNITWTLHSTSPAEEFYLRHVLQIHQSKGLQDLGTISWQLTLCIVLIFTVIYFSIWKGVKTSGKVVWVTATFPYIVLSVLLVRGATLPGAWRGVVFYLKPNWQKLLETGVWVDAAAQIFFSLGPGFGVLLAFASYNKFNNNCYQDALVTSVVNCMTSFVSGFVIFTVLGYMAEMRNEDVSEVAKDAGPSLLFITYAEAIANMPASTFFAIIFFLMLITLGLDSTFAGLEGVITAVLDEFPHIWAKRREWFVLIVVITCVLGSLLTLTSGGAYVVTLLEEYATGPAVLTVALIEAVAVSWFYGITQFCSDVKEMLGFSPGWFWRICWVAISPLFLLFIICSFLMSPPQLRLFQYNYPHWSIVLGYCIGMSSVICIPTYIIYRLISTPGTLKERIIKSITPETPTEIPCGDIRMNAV
# Rattus norvegicus = organism: Rattus norvegicus; settings: 100 nM
# Description: Displacement of 3H]paroxetine from rat cortical alpha1 adrenergic receptor at 100 nM
# [5] = molecular target: Sodium-dependent serotonin transporter (Rattus norvegicus) (UniProt P31652); test: Displacement of [3H]paroxetine from rat cortical 5HTT reuptake site at 1 uM
# [6] = molecular target: T2, 5-hydroxytryptamine receptor 1A (Homo sapiens); test: Displacement of [3H]8-OH-DPAT from human 5HT1A receptor expressed in CHO cells at 1 uM; type: cell-based
# Sequence of Sodium-dependent serotonin transporter (Rattus norvegicus) (P31652 whole entry): as above
Compound,Ki [2],Emax [3],Ki [4],also measured
C1=Nc2cccc(N3CCN([C@H]4CC[C@@H](c5c[nH]c6ncccc65)CC4)CC3)c2C1,15.8 nM,–,–,inhibition [1]: 0%
C1=Nc2cccc(N3CCN([C@H]4CC[C@H](c5c[nH]c6ncccc65)CC4)CC3)c2C1,7.8 nM,–,–,inhibition [1]: 18%
c1cc(N2CCN([C@H]3CC[C@H](c4c[nH]c5ccccc54)CC3)CC2)c2cc[nH]c2c1,5.3 nM,–,–,–
Fc1cccc2[nH]cc([C@H]3CC[C@H](N4CCN(c5cccc6[nH]ccc56)CC4)CC3)c12,–,–,–,inhibition [1]: 0%
Fc1ccc2[nH]cc([C@H]3CC[C@H](N4CCN(c5cccc6[nH]ccc56)CC4)CC3)c2c1,–,–,–,inhibition (Rattus norvegicus): 16%
Cc1[nH]c2ccccc2c1[C@H]1CC[C@@H](N2CCN(c3cccc4[nH]ccc34)CC2)CC1,–,–,–,inhibition [1]: 4%
Cc1[nH]c2ccccc2c1[C@H]1CC[C@H](N2CCN(c3cccc4[nH]ccc34)CC2)CC1,–,–,–,inhibition [1]: 12%
Clc1ccc2[nH]cc([C@H]3CC[C@@H](N4CCN(c5cccc6[nH]ccc56)CC4)CC3)c2c1,–,–,–,inhibition [1]: 28%
Fc1cccc2[nH]cc([C@H]3CC[C@@H](N4CCN(c5cccc6[nH]ccc56)CC4)CC3)c12,–,–,–,inhibition [1]: 27%
c1cc(N2CCN([C@H]3CC[C@@H](c4c[nH]c5ccccc54)CC3)CC2)c2cc[nH]c2c1,–,0%,–,–
Fc1ccc2c(c1)[nH]cc2[C@H]1CC[C@H](N2CCN(c3cccc4[nH]ccc34)CC2)CC1,5.4 nM,–,–,–
Fc1ccc2[nH]cc([C@H]3CC[C@H](N4CCN(c5cccc6cccnc56)CC4)CC3)c2c1,–,66%,–,–
Fc1ccc2[nH]cc([C@H]3CC[C@@H](N4CCN(c5cccc6ccccc56)CC4)CC3)c2c1,–,34%,640 nM,inhibition [6]: 46%
CC(C)n1cc([C@H]2CC[C@H](N3CCN(c4cccc5[nH]ccc45)CC3)CC2)c2cc(C#N)ccc21,–,–,–,inhibition [1]: 16%; inhibition [6]: 46%
N#Cc1ccc2[nH]cc([C@H]3CC[C@H](N4CCN(c5cccc6nccnc56)CC4)CC3)c2c1,9.1 nM,11%,13.6 nM,–
N#Cc1ccc2[nH]cc([C@H]3CC[C@H](N4CCN(c5cccc6ncccc56)CC4)CC3)c2c1,6.2 nM,3%,4.9 nM,–
CCCn1cc([C@H]2CC[C@H](N3CCN(c4cccc5[nH]ccc45)CC3)CC2)c2cc(C#N)ccc21,–,–,–,inhibition [6]: 46%
Cn1cc([C@H]2CC[C@@H](N3CCN(c4cccc5[nH]ccc45)CC3)CC2)c2cc(F)ccc21,124 nM,–,11.6 nM,–
N#Cc1ccc2[nH]cc([C@H]3CC[C@H](N4CCN(c5cccc6[nH]ccc56)CC4)CC3)c2c1,–,11%,8.5 nM,–
N#Cc1ccc2[nH]cc([C@H]3CC[C@H](N4CCN(c5cccc6cccnc56)CC4)CC3)c2c1,–,0%,20 nM,–
Fc1ccc2c(c1)[nH]cc2[C@H]1CC[C@@H](N2CCN(c3cccc4[nH]ccc34)CC2)CC1,–,0%,–,–
Cc1nc2c(N3CCN([C@H]4CC[C@@H](c5c[nH]c6ccccc65)CC4)CC3)cccc2[nH]1,10.7 nM,0%,61 nM,–
COc1ccc2[nH]cc([C@H]3CC[C@@H](N4CCN(c5cccc6[nH]ccc56)CC4)CC3)c2c1,–,–,–,inhibition [1]: 25%
CC(C)n1cc([C@H]2CC[C@@H](N3CCN(c4cccc5[nH]ccc45)CC3)CC2)c2cc(C#N)ccc21,–,–,38.5 nM,–
N#Cc1ccc2[nH]cc([C@H]3CC[C@@H](N4CCN(c5cccc6nccnc56)CC4)CC3)c2c1,156 nM,0%,1.1 nM,–
Cn1cc([C@H]2CC[C@H](N3CCN(c4cccc5[nH]ccc45)CC3)CC2)c2cc(F)ccc21,90 nM,–,67.5 nM,–
Clc1ccc2[nH]cc([C@H]3CC[C@H](N4CCN(c5cccc6[nH]ccc56)CC4)CC3)c2c1,–,–,–,inhibition [5]: 20%
c1cc(N2CCN([C@H]3CC[C@@H](c4c[nH]c5ccccc54)CC3)CC2)c2nc[nH]c2c1,7.9 nM,0%,13 nM,–

# Second part, led by results:
Ki [2],Emax [3],Ki [4],Compound,also measured
1.7 nM,0%,75 nM,c1cc(N2CCN([C@H]3CC[C@H](c4c[nH]c5ccccc54)CC3)CC2)c2nc[nH]c2c1,–
42.6 nM,71%,–,Fc1ccc2[nH]cc([C@H]3CC[C@H](N4CCN(c5cccc6ccccc56)CC4)CC3)c2c1,inhibition [5]: 38%
–,23%,1.3 nM,N#Cc1ccc2[nH]cc([C@H]3CC[C@@H](N4CCN(c5cccc6cccnc56)CC4)CC3)c2c1,–
2.9 nM,–,–,COc1ccc2[nH]cc([C@H]3CC[C@H](N4CCN(c5cccc6[nH]ccc56)CC4)CC3)c2c1,inhibition [5]: 45%
16.1 nM,0%,105 nM,FC(F)(F)c1nc2c(N3CCN([C@H]4CC[C@@H](c5c[nH]c6ccccc65)CC4)CC3)cccc2[nH]1,–
97.2 nM,0%,13.8 nM,Fc1ccc2[nH]cc([C@H]3CC[C@@H](N4CCN(c5cccc6ncccc56)CC4)CC3)c2c1,–
3.6 nM,29%,75 nM,FC(F)(F)c1nc2c(N3CCN([C@H]4CC[C@H](c5c[nH]c6ccccc65)CC4)CC3)cccc2[nH]1,–
–,0%,1.6 nM,N#Cc1ccc2[nH]cc([C@H]3CC[C@@H](N4CCN(c5cccc6[nH]ccc56)CC4)CC3)c2c1,–
58.1 nM,0%,3.5 nM,N#Cc1ccc2[nH]cc([C@H]3CC[C@@H](N4CCN(c5cccc6ncccc56)CC4)CC3)c2c1,–
8.3 nM,0%,73 nM,Fc1ccc2[nH]cc([C@H]3CC[C@H](N4CCN(c5cccc6ncccc56)CC4)CC3)c2c1,–
3 nM,0%,115 nM,Cc1nc2c(N3CCN([C@H]4CC[C@H](c5c[nH]c6ccccc65)CC4)CC3)cccc2[nH]1,–
–,20%,–,Fc1ccc2[nH]cc([C@H]3CC[C@@H](N4CCN(c5cccc6cccnc56)CC4)CC3)c2c1,–
